# Laboratory results reported in patent US20090247572A1, “AGENT FOR TREATING ATRIAL FIBRILLATION” (priority 2005, published 2009).
# Key:
# [1] = tested on: Canine Cardiac Atrioventricular Node Function; assay: Test of the Suppression of Canine Cardiac Atrioventricular Node Function; format: in vivo; details: anesthetized male beagle dogs, 0.1 mg/kg intravenously, 1 hour after administration (compound A), 30 minutes (Verapamil), vs control group; for change in AH intervals in the His bundle electrocardiograms during high-frequent stimulation by pacing: pacing the right atrium at intervals of 400 msec and 300 msec
# Excerpt: Male beagle dogs were employed in this test. Under halothane anesthesia, an electrode catheter was inserted from the left femoral artery and the front end thereof was placed in the non-coronary cusp of His bundle to thereby record the His bundle electrocardiogram. A pacing catheter was inserted via a sheath introducer placed in the right femoral vein and the front end thereof was fixed to the inner wall of the right atrium. Electrodes for recording body surface electrocardiogram were attached to the four limbs and thus the second-lead electrocardiogram was recorded. A drug was administered via the sheath introducer placed in the left femoral vein.
# Verapamil, which was used as a comparative compound, was intravenously administered in a dose of 0.1 mg/kg. A group to which a vehicle was administered was referred to as the control group.
# After the stabilization period following the surgical operation, AH intervals in the His bundle electrocardiograms were measured in the sinus rhythm and during pacing the right atrium at intervals of 400 msec and 300 msec. […] In the case of the comparative drug Verapamil, the AH intervals in the His bundle electrocardiogram as described above were measured before the administration and 30 minutes after the administration. The effect of a compound was expressed in the change in the AH intervals in the individual His bundle electrocardiograms in the sinus rhythm and during pacing the right atrium at intervals of 400 msec and 300 msec from the value before the administration of the drug and the data were compared with the data of the control group (Student's t-test) at a significant level of 5%. The term “AH interval in His bundle electrocardiogram” means the period of time wherein an electrical excitation generated at the atrium passes the atrioventricular node and arrives at His bundle.
# [2] = tested on: Anesthetized Swine Ventricular Rate; assay: Test of Measurement of Anesthetized Swine Ventricular Rate; format: in vivo, pigs (Landrace/White F1)
# Description: Male pigs (Landrace/White F1) were employed in this test. Under pentbarbital anesthesia, a thoracotomy was performed at the fourth right intercostal space and an electrode for electrical stimulation was attached to the right atrial surface thus exposed. Electrodes for recording body surface electrocardiogram were attached to the four limbs and thus the second-lead electrocardiogram was recorded. A catheter for drug administration was placed in the right femoral vein. Compound A was intravenously administered in a dose of 0.3 mg/kg. Atenolol, which was a β-blocker used as a comparative compound, was intravenously administered in a dose of 1 mg/kg. A group to which a vehicle was administered was referred to as the control group. A 50 Hz burst stimulation was applied to the right atrium via the electrode for electrical stimulation and the ventricular rate per minute was measured as R-waves in the body surface electrocardiogram. Thirty minutes after the administration of compound A or the comparative drug, a 50 Hz burst stimulation was applied again to the right atrium and then the R-waves per minute in the body surface electrocardiogram were measured.
Compound,change in AH intervals in the His bundle electrocardiograms during high-frequent stimulation by pacing [1],change in AH interval in the His bundle electrocardiogram in the sinus rhythm [1],"change in ventricular rate (R waves per minute) during the 50 Hz burst stimulation ([2]; anesthetized male pigs, 0.3 mg/kg intravenously, 30 minutes after administration, 50 Hz burst stimulation of right atrium, vs control group)","efficacy relative to Atenolol in controlling the ventricular rate ([2]; anesthetized pigs, compound A 0.3 mg/kg vs Atenolol 1 mg/kg intravenously)"
"COc1cc2c(cc1OC)CN(C(=O)[C@@H]1CCCN(CCNC(=O)c3ccc(F)cc3)C1)CC2 [compound A, (−)-N-{2-[(R)-3-(6,7-dimethoxy-1,2,3,4-tetrahydroisoquinoline-2-carbonyl)piperidino]ethyl}-4-fluorobenzamide monophosphate]",prolonged at a significant level of 1%,no effect,significantly decreases,stronger by thrice or more
COc1ccc(CCN(C)CCCC(C#N)(c2ccc(OC)c(OC)c2)C(C)C)cc1OC (centres unmarked) [Verapamil],significantly prolonged,significantly prolonged,,
COc1cc2c(cc1OC)CC(=O)N(CCCN(C)C[C@H]1Cc3cc(OC)c(OC)cc31)CC2 [Ivabradine],no significant difference at a significant level of 5% was observed,do not suppress the atrioventricular node function in the sinus rhythm,,
